# Measurements: article PMC4025572 (Biochemistry, 2014)
# Molecular target: human indolethylamine-N-methyltransferase (hINMT) (Homo sapiens, UniProt O95050)
# Assay: radiometric […]SAM methyltransferase assay, pure hINMT
# Type: biochemical
# human indolethylamine-N-methyltransferase (hINMT), sequence (O95050 whole entry): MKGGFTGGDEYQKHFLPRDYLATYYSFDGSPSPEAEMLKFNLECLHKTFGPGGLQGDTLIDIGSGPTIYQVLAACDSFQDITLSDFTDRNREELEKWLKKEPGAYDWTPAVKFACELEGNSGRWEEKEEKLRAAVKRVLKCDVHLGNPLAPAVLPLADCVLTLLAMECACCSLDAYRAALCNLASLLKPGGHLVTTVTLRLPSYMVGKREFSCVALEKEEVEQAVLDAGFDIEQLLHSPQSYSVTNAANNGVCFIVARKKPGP
structure (smiles),measurement,value
"CN(C)CCCNCCc1c[nH]c2ccccc12 [PDAT, N-[2-(1H-indol-3-yl)ethyl]-N′,N′-dimethylpropane-1,3-diamine]",IC50,~1000 µM
